Columns and labels:
[1] = Concentration required to inhibit the growth of chang liver cells.; format: functional; details: Homo sapiens
[2] = system: L1210; test: Concentration required to inhibit the growth of L1210 cells.; format: functional, cell-based; details: Mus musculus
[3] = system: Mus musculus; test: Incidence of disease (mouse type II collagen) was scored as the percentage of animals within each experimental group that exhibited joint or limb inflammation on day 37 at intraperitoneal dose of 12 mg/kg; format: functional
[4] = system: Mus musculus; test: Incidence of disease (mouse type II collagen) was scored as the percentage of animals within each experimental group that exhibited joint or limb inflammation on day 37 at intraperitoneal dose of 18 mg/kg; format: functional
[5] = system: Mus musculus; test: Incidence of disease (mouse type II collagen) was scored as the percentage of animals within each experimental group that exhibited joint or limb inflammation on day 23 at intraperitoneal dose of 12 mg/kg; format: functional
[6] = system: Mus musculus; test: Incidence of disease (mouse type II collagen) was scored as the percentage of animals within each experimental group that exhibited joint or limb inflammation on day 23 at intraperitoneal dose of 18 mg/kg; format: functional
[7] = system: Mus musculus; test: Incidence of disease (mouse type II collagen) was scored as the percentage of animals within each experimental group that exhibited joint or limb inflammation on day 23 at intraperitoneal dose of 6 mg/kg; format: functional
[8] = system: Mus musculus; test: Incidence of disease (mouse type II collagen) was scored as the percentage of animals within each experimental group that exhibited joint or limb inflammation on day 44 at intraperitoneal dose of 12 mg/kg; format: functional
[9] = system: Mus musculus; test: Incidence of disease (mouse type II collagen) was scored as the percentage of animals within each experimental group that exhibited joint or limb inflammation on day 44 at intraperitoneal dose of 18 mg/kg; format: functional
[10] = system: Mus musculus; test: Incidence of disease (mouse type II collagen) was scored as the percentage of animals within each experimental group that exhibited joint or limb inflammation on day 44 at intraperitoneal dose of 6 mg/kg; format: functional
[11] = system: Mus musculus; test: Incidence of disease (mouse type II collagen) was scored as the percentage of animals within each experimental group that exhibited joint or limb inflammation on day 30 at intraperitoneal dose of 12 mg/kg; format: functional
[12] = system: Mus musculus; test: Incidence of disease (mouse type II collagen) was scored as the percentage of animals within each experimental group that exhibited joint or limb inflammation on day 30 at intraperitoneal dose of 18 mg/kg; format: functional
[13] = system: Mus musculus; test: Incidence of disease (mouse type II collagen) was scored as the percentage of animals within each experimental group that exhibited joint or limb inflammation on day 30 at intraperitoneal dose of 6 mg/kg; format: functional
[14] = system: Mus musculus; test: Incidence of disease (mouse type II collagen) was scored as the percentage of animals within each experimental group that exhibited joint or limb inflammation on day 37 at intraperitoneal dose of 6 mg/kg; format: functional
[15] = system: Mus musculus; test: Tested for antiinflammatory activity on mouse type II collagen arthritis as Paw swelling of all animals in each group on day 30 at intraperitoneal dose of 12 mg/kg; format: functional
[16] = system: Mus musculus; test: Tested for antiinflammatory activity on mouse type II collagen arthritis as Paw swelling of all animals in each group on day 30 at intraperitoneal dose of 18 mg/kg; format: functional
[17] = system: Mus musculus; test: Tested for antiinflammatory activity on mouse type II collagen arthritis as Paw swelling of all animals in each group on day 30 at intraperitoneal dose of 6 mg/kg; format: functional
[18] = system: Mus musculus; test: Tested for antiinflammatory activity on mouse type II collagen arthritis as Paw swelling of all animals in each group on day 23 at intraperitoneal dose of 12 mg/kg; format: functional
[19] = system: Mus musculus; test: Tested for antiinflammatory activity on mouse type II collagen arthritis as Paw swelling of all animals in each group on day 23 at intraperitoneal dose of 18 mg/kg; format: functional
[20] = system: Mus musculus; test: Tested for antiinflammatory activity on mouse type II collagen arthritis as Paw swelling of all animals in each group on day 23 at intraperitoneal dose of 6 mg/kg; format: functional
[21] = system: Mus musculus; test: Tested for antiinflammatory activity on mouse type II collagen arthritis as Paw swelling of all animals in each group on day 44 at intraperitoneal dose of 12 mg/kg; format: functional
[22] = system: Mus musculus; test: Tested for antiinflammatory activity on mouse type II collagen arthritis as Paw swelling of all animals in each group on day 44 at intraperitoneal dose of 18 mg/kg; format: functional
[23] = system: Mus musculus; test: Tested for antiinflammatory activity on mouse type II collagen arthritis as Paw swelling of all animals in each group on day 37 at intraperitoneal dose of 18 mg/kg; format: functional
[24] = system: Mus musculus; test: Tested for antiinflammatory activity on mouse type II collagen arthritis as Paw swelling of all animals in each group on day 37 at intraperitoneal dose of 6 mg/kg; format: functional
[25] = system: Mus musculus; test: Tested for antiinflammatory activity on mouse type II collagen arthritis as Paw swelling of all animals in each group on day 37 at intraperitoneal dose of 12 mg/kg; format: functional
[26] = system: Mus musculus; test: Tested for antiinflammatory activity on mouse type II collagen arthritis as Paw swelling of all animals in each group on day 44 at intraperitoneal dose of 6 mg/kg; format: functional
[27] = system: Mus musculus; test: Incidence of disease (mouse type II collagen) was scored as the percentage of animals within each experimental group that exhibited joint or limb inflammation on day 37 at intraperitoneal dose of 0.50 mg/kg (deaths observed at 1.5 mg/kg); format: functional
[28] = system: Mus musculus; test: Incidence of disease (mouse type II collagen) was scored as the percentage of animals within each experimental group that exhibited joint or limb inflammation on day 37 at intraperitoneal dose of 1 mg/kg (deaths observed at 1.5 mg/kg); format: functional
[29] = system: Mus musculus; test: Incidence of disease (mouse type II collagen) was scored as the percentage of animals within each experimental group that exhibited joint or limb inflammation on day 23 at intraperitoneal dose of 0.25 mg/kg (deaths observed at 1.5 mg/kg); format: functional
[30] = system: Mus musculus; test: Incidence of disease (mouse type II collagen) was scored as the percentage of animals within each experimental group that exhibited joint or limb inflammation on day 23 at intraperitoneal dose of 0.50 mg/kg (deaths observed at 1.5 mg/kg); format: functional
[31] = system: Mus musculus; test: Incidence of disease (mouse type II collagen) was scored as the percentage of animals within each experimental group that exhibited joint or limb inflammation on day 23 at intraperitoneal dose of 1 mg/kg (deaths observed at 1.5 mg/kg); format: functional
[32] = system: Mus musculus; test: Incidence of disease (mouse type II collagen) was scored as the percentage of animals within each experimental group that exhibited joint or limb inflammation on day 37 at intraperitoneal dose of 0.25 mg/kg (deaths observed at 1.5 mg/kg); format: functional
[33] = system: Mus musculus; test: Incidence of disease (mouse type II collagen) was scored as the percentage of animals within each experimental group that exhibited joint or limb inflammation on day 44 at intraperitoneal dose of 0.25 mg/kg (deaths observed at 1.5 mg/kg); format: functional
[34] = system: Mus musculus; test: Incidence of disease (mouse type II collagen) was scored as the percentage of animals within each experimental group that exhibited joint or limb inflammation on day 44 at intraperitoneal dose of 0.50 mg/kg (deaths observed at 1.5 mg/kg); format: functional
[35] = system: Mus musculus; test: Incidence of disease (mouse type II collagen) was scored as the percentage of animals within each experimental group that exhibited joint or limb inflammation on day 44 at intraperitoneal dose of 1 mg/kg (deaths observed at 1.5 mg/kg); format: functional
[36] = system: Mus musculus; test: Incidence of disease (mouse type II collagen) was scored as the percentage of animals within each experimental group that exhibited joint or limb inflammation on day 30 at intraperitoneal dose of 0.25 mg/kg (deaths observed at 1.5 mg/kg); format: functional
[37] = system: Mus musculus; test: Incidence of disease (mouse type II collagen) was scored as the percentage of animals within each experimental group that exhibited joint or limb inflammation on day 30 at intraperitoneal dose of 0.50 mg/kg (deaths observed at 1.5 mg/kg); format: functional
[38] = system: Mus musculus; test: Incidence of disease (mouse type II collagen) was scored as the percentage of animals within each experimental group that exhibited joint or limb inflammation on day 30 at intraperitoneal dose of 1 mg/kg (deaths observed at 1.5 mg/kg); format: functional
[39] = system: Mus musculus; test: Tested for antiinflammatory activity on mouse type II collagen arthritis as Paw swelling of all animals in each group on day 23 at intraperitoneal dose of 0.25 mg/kg; format: functional
[40] = system: Mus musculus; test: Tested for antiinflammatory activity on mouse type II collagen arthritis as Paw swelling of all animals in each group on day 23 at intraperitoneal dose of 0.50 mg/kg; format: functional; details: dose 0.5 mg/kg
[41] = system: Mus musculus; test: Tested for antiinflammatory activity on mouse type II collagen arthritis as Paw swelling of all animals in each group on day 30 at intraperitoneal dose of 0.25 mg/kg; format: functional
[42] = system: Mus musculus; test: Tested for antiinflammatory activity on mouse type II collagen arthritis as Paw swelling of all animals in each group on day 44 at intraperitoneal dose of 0.50 mg/kg; format: functional; details: dose 0.5 mg/kg
[43] = system: Mus musculus; test: Tested for antiinflammatory activity on mouse type II collagen arthritis as Paw swelling of all animals in each group on day 44 at intraperitoneal dose of 1 mg/kg; format: functional
[44] = system: Mus musculus; test: Tested for antiinflammatory activity on mouse type II collagen arthritis as Paw swelling of all animals in each group on day 44 at intraperitoneal dose of 0.25 mg/kg; format: functional
[45] = system: Mus musculus; test: Tested for antiinflammatory activity on mouse type II collagen arthritis as Paw swelling of all animals in each group on day 30 at intraperitoneal dose of 0.50 mg/kg; format: functional; details: dose 0.5 mg/kg
[46] = system: Mus musculus; test: Tested for antiinflammatory activity on mouse type II collagen arthritis as Paw swelling of all animals in each group on day 30 at intraperitoneal dose of 1 mg/kg; format: functional
[47] = system: Mus musculus; test: Tested for antiinflammatory activity on mouse type II collagen arthritis as Paw swelling of all animals in each group on day 37 at intraperitoneal dose of 0.25 mg/kg; format: functional
[48] = system: Mus musculus; test: Tested for antiinflammatory activity on mouse type II collagen arthritis as Paw swelling of all animals in each group on day 37 at intraperitoneal dose of 0.50 mg/kg; format: functional; details: dose 0.5 mg/kg
[49] = system: Mus musculus; test: Tested for antiinflammatory activity on mouse type II collagen arthritis as Paw swelling of all animals in each group on day 37 at intraperitoneal dose of 1 mg/kg; format: functional

SMILES: Nc1nc(N)c2cc(CCc3ccc(C(=O)NC(CCC(=O)O)C(=O)O)cc3)cnc2n1 (stereo unspecified)
- IC50 [1]: 37 nM
- IC50 [2]: 27 nM
- Animals [3]: 12%
- Animals [4]: 0%
- Animals [5]: 0%
- Animals [6]: 12%
- Animals [7]: 12%
- Animals [8]: 25%
- Animals [9]: 0%
- Animals [10]: 38%
- Animals [11]: 12%
- Animals [12]: 0%
- Animals [13]: 25%
- Animals [14]: 25%
- Paw swelling [15]: 2.24 mm
- Paw swelling [16]: 2.16 mm
- Paw swelling [17]: 2.28 mm
- Paw swelling [18]: 2.12 mm
- Paw swelling [19]: 2.15 mm
- Paw swelling [20]: 2.17 mm
- Paw swelling [21]: 2.28 mm
- Paw swelling [22]: 2.2 mm
- Paw swelling [23]: 2.15 mm
- Paw swelling [24]: 2.26 mm
- Paw swelling [25]: 2.24 mm
- Paw swelling [26]: 2.29 mm

SMILES: CCc1c(CNc2ccc(C(=O)NC(CCC(=O)O)C(=O)O)cc2)cnc2nc(N)nc(N)c12 (stereo unspecified)
- IC50 [1]: 126 nM
- IC50 [2]: 1.9 nM
- Animals [27]: 86%
- Animals [28]: 62%
- Animals [29]: 38%
- Animals [30]: 43%
- Animals [31]: 12%
- Animals [32]: 50%
- Animals [33]: 62%
- Animals [34]: 71%
- Animals [35]: 62%
- Animals [36]: 0%
- Animals [37]: 57%
- Animals [38]: 25%
- Paw swelling [39]: 2.25 mm
- Paw swelling [40]: 2.31 mm
- Paw swelling [41]: 2.22 mm
- Paw swelling [42]: 2.43 mm
- Paw swelling [43]: 2.29 mm
- Paw swelling [44]: 2.33 mm
- Paw swelling [45]: 2.38 mm
- Paw swelling [46]: 2.19 mm
- Paw swelling [47]: 2.34 mm
- Paw swelling [48]: 2.42 mm
- Paw swelling [49]: 2.32 mm
